Read-outs that look alike come from different tables or passages of the source. Each block holds one molecule with its values, some of them ahead of it.
Assays:
[1] = system: IL-4 stimulated expression of CD23 in human Ramos B cells (JAK-1 and JAK-3); experiment: Assay for Ramos B-Cell Line Stimulated with IL-4 (CD23 upregulation, FACS); format: cell-based; conditions: read-out: IC50, Example 41
In short: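 Read-out: anti-CD23-PE flow cytometry on Ramos B cells, giving IC50. Cells (5×10^4 per point, RPMI + 5% serum) get compound or DMSO for 1 h at 37 °C, then IL-4 50 units/mL final for 20-24 h.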

[2] = system: Primary human T-cells; experiment: Primary Human T-Cell Proliferation Assay Stimulated with IL-2 (CellTiter-Glo); format: cell-based; conditions: read-out: IC50, Example 42
Description: The activity of the active compounds of the invention may further be characterized by assaying the effect of the 2,4-substituted pyrimidinediamine compounds described herein on the proliferative response of primary human T-cells. In this assay, primary human T-cells derived from peripheral blood and pre-activated through stimulation of the T-cell receptor and CD28, proliferate in culture in response to the cytokine Interleukin-2 (IL-2). This proliferative response is dependent on the activation of JAK1 and JAK3 tyrosine kinases, which phosphorylate and activate the transcription factor Stat-5. The primary human T-cells are incubated with the 2,4-substituted pyrimidinediamine compounds in the presence of IL-2 for 72 hours and at the assay endpoint intracellular ATP concentrations are measured to assess cell viability. A reduction in cell proliferation compared to control conditions is indicative of inhibition of the JAK kinase pathway. An exemplary assay of this type is described in greater detail in Example 42
Primary human T-cells derived from peripheral blood and pre-activated through stimulation of the T-cell receptor and CD28, proliferate in vitro in response to the cytokine Interleukin-2 (IL-2). This proliferative response is dependent on the activation of JAK-1 and JAK-3 tyrosine kinases, which phosphorylate and activate the transcription factor Stat-5.
Human primary T cells were prepared as follows. Whole blood was obtained from a healthy volunteer, mixed 1:1 with PBS, layered on to Ficoll Hypaque (Amersham Pharmacia Biotech, Piscataway, NJ, Catalog #17-1440-03) in 2:1 blood/PBS:ficoll ratio and centrifuged for 30 min at 4° C. at 1750 rpm. The lymphocytes at the serum: ficoll interface were recovered and washed twice with 5 volumes of PBS. The cells were resuspended in Yssel's medium (Gemini Bio-products, Woodland, CA, Catalog #400-103) containing 40 U/mL recombinant IL2 (R and D Systems, Minneapolis, MN, Catalog #202-IL (20 rig)) and seeded into a flask pre-coated with 1 μg/mL anti-CD3 (BD Pharmingen, San Diego, CA, Catalog #555336) and 5 μg/mL anti-CD28 (Immunotech, Beckman Coulter of Brea CA, Catalog #IM1376). The primary T-cells were stimulated for 3-4 days, then transferred to a fresh flask and maintained in RPMI with 10% FBS and 40 U/mL IL-2.
Primary T-cells were washed twice with PBS to remove the IL-2 and resuspended in Yssel's medium at 2×10^6 cells/mL. 50 μL of cell suspension containing 80 U/mL IL-2 was added to each well of a flat bottom 96 well black plate. For the unstimulated control, IL-2 was omitted from the last column on the plate. Compounds were serially diluted in dimethyl sulfoxide (DMSO, 99.7% pure, cell culture tested, Sigma-Aldrich, St. Louis, MO, Catalog No. D2650) from 5 mM in 3-fold dilutions, and then diluted 1:250 in Yssel's medium. 50 μL of 2× compound was added per well in duplicate and the cells were allowed to proliferate for 72 hours at 37° C.
Proliferation was measured using CellTiter-Glo® Luminescent Cell Viability Assay (Promega), which determines the number of viable cells in culture based on quantitation of the ATP present, as an indicator of metabolically active cells. The substrate was thawed and allowed to come to room temperature. After mixing the Cell Titer-Glo reagent and diluent together, 100 μL was added to each well. The plates were mixed on an orbital shaker for two minutes to induce lysis and incubated at room temperature for an additional ten minutes to allow the signal to equilibrate. Detection was performed using a Wallac Victor2 1420 multilabel counter purchased from Perkin Elmer, Shelton, CT The IC50 calculated based on the results of this assay are provided in TABLE XII.

[3] = Homo sapiens, Ramos, Ramos B-cell line stimulated with IL-4, CD23 expression by FACS
[4] = Homo sapiens, T-cell, primary human T-cell proliferation stimulated with IL-2
[5] = Homo sapiens, Ramos, Ramos B cells stimulated with IL-4, CD23 expression by FACS
[6] = Homo sapiens, T-cell, primary human T-cells stimulated with IL-2, proliferation
[7] = Ramos B-cell line stimulated with IL-4, CD23 expression by FACS
[8] = primary human T-cell proliferation stimulated with IL-2
[9] = Ramos B cells stimulated with IL-4, CD23 expression by FACS
[10] = primary human T-cells stimulated with IL-2, proliferation

IC50 [1, 3]: 21200 nM
Molecule: NS(=O)(=O)c1cccc(Nc2ncc(F)c(Nc3ccc(Oc4ccncc4)cc3)n2)c1 [II-17, N2-(3-Aminosulfonylphenyl)-5-fluoro-N4-[4-(4-pyridyloxy)phenyl]-2,4-pyrimidinediamine]
IC50 [2, 4]: 8210 nM

IC50 [1, 5]: 136 nM
Molecule: NS(=O)(=O)c1ccc(Nc2ncc(F)c(Nc3ccc(Cl)c(Cl)c3)n2)cc1 [VI-109, N2-(4-Aminosulfonylphenyl)-N4-(3,4-dichlorophenyl)-5-fluoro-2,4-pyrimidinediamine]
IC50 [2, 6]: 2870 nM

IC50 [1, 5]: 295 nM
Molecule: CC(C)c1ccc(Nc2ncc(F)c(Nc3ccc4oc(C#N)cc4c3)n2)cc1S(N)(=O)=O [IX-22, N2-(3-Aminosulfonyl-4-iso-propylphenyl)-N4-(2-cyanobenzofuran-5-yl)-5-fluoro-2,4-pyrimidinediamine]
IC50 [2, 6]: 1590 nM

IC50 [1, 5]: 147 nM
Molecule: C#CCN(CC#C)c1ccc(Nc2nc(Nc3ccc(C)c(S(N)(=O)=O)c3)ncc2F)cc1 [VI-67, N2-(3-Aminosulfonyl-4-methylphenyl)-N4-{4-[bis(prop-2-ynyl)amino]phenyl}-5-fluoro-2,4-pyrimidinediamine]
IC50 [2, 6]: 718 nM

IC50 [1, 7]: 306 nM
Molecule: Cn1ccc(NC(=O)Cc2ccc(Nc3nc(Nc4cccc(S(N)(=O)=O)c4)ncc3F)cc2)n1 [III-50, N2-(3-Aminosulfonylphenyl)-5-fluoro-N-4-[4(1-methylpyrazolyl-3-aminocarbonylmethylene)phenyl]-2,4-pyrimidinediamine]
IC50 [2, 8]: 1970 nM

IC50 [1, 9]: 174 nM
Molecule: CNS(=O)(=O)c1cc(Nc2ncc(F)c(Nc3ccc(-c4ccccn4)c(OCCl)c3)n2)ccc1C [IX-54, 5-Fluoro-N2-[3-N-(methyl)aminosulfonyl-4-methylphenyl]-N4-[4-(2-pyridinyl)-3-chloromethyleneoxyphenyl]-2,4-pyrimidinediamine]
IC50 [2, 10]: 2470 nM

IC50 [1, 7]: 120 nM
Molecule: COc1cc(Nc2ncc(F)c(Nc3cccc(OCC#N)c3)n2)ccc1S(N)(=O)=O [Compound I-7, N2-(4-Aminosulfonyl-3-methoxy)phenyl-N4-(3-cyanomethoxy)phenyl-5-fluoro-2,4-pyrimidinediamine]
IC50 [2, 8]: 502 nM

IC50 [1, 3]: 246 nM
Molecule: C=CCNC(=O)COc1ccc(Nc2nc(Nc3ccc(S(N)(=O)=O)cc3)ncc2F)cc1 [Compound I-157, N4-(4-Allylaminocarbonylmethoxyphenyl)-N2-(4-aminosulfonylphenyl)-5-fluoro-2,4-pyrimidinediamine]
IC50 [2, 4]: 1890 nM

IC50 [1, 5]: 46.9 nM
Molecule: CN1C(=O)COc2ccc(Nc3nc(Nc4cccc(S(N)(=O)=O)c4)ncc3F)cc21 [VII-41, N2-(3-Aminosulfonylphenyl)-5-fluoro-N4-(4-methyl-3-oxo-benz[1,4]oxazin-6-yl)-2,4-pyrimidinediamine]
IC50 [2, 6]: 264 nM

Molecule: N2-(3-Aminosulfonyl-4-methoxy-5-methylphenyl)-5-fluoro-N4-(4-trifluoromethylphenyl)-2,4-pyrimidinediamine [VI-34]
IC50 [1, 9]: 157 nM
IC50 [2, 10]: 839 nM

IC50 [1, 5]: 251 nM
Molecule: C#CCOC(=O)NCc1ccc(Nc2nc(Nc3ccc(C)c(S(N)(=O)=O)c3)ncc2F)cc1 [VI-73, N2-(3-Aminosulfonyl-4-methylphenyl)-5-fluoro-N4-{4-[(prop-2-ynyloxy)carbonylaminomethyl]phenyl}-2,4-pyrimidinediamine]
IC50 [2, 6]: 2010 nM

IC50 [1, 5]: 158 nM
Molecule: CC(C)(C)c1ccc(Nc2nc(Nc3cccc(S(N)(=O)=O)c3)ncc2F)cc1 [VI-35, N2-(3-Aminosulfonylphenyl)-N4-(4-tert-butylphenyl)-5-fluoro-2,4-pyrimidinediamine]
IC50 [2, 6]: 1260 nM

IC50 [1, 5]: 96.5 nM
Molecule: COC(=O)c1ccc(Nc2nc(Nc3ccc(S(N)(=O)=O)cc3)ncc2F)s1 [IX-49, N2-(4-Aminosulfonylphenyl)-5-fluoro-N4-(5-methoxycarbonyl-thiophene-2-yl)-2,4-pyrimidinediamine]
IC50 [2, 6]: 61900 nM

IC50 [1, 9]: 1030 nM
Molecule: NS(=O)(=O)c1ccc(Nc2ncc(F)c(Nc3ccc(Cn4cncn4)cc3)n2)cc1 [III-99, N2-(4-Aminosulfonylphenyl)-5-fluoro-N4-{4-[1-(1,2,4-thazolyl)methyl]phenyl}-2,4-pyrimidinediamine]
IC50 [2, 10]: 2170 nM

Molecule: CC(C)(C)OC(=O)NC1CCOc2ccc(Nc3nc(Nc4ccc(S(N)(=O)=O)cc4)ncc3F)cc21 (stereo not shown) [VII-59, N2-(4-Aminosulfonylphenyl)-N4-(4-N-tert-butoxycarbonylamino-3,4-dihydro-2H-1-benzopyran-6-yl)-5-fluoro-2,4-pyrimidinediamine]
IC50 [1, 9]: 831 nM
IC50 [2, 10]: 2990 nM

IC50 [1, 5]: 49.8 nM
Molecule: COc1ccc(Nc2nc(Nc3ccc(OC)c(S(N)(=O)=O)c3)ncc2F)cc1Cl [VI-29, N2-(3-Aminosulfonyl-4-methoxyphenyl)-N4-(3-chloro-4-methoxyphenyl)-5-fluoro-2,4-pyrimidinediamine]
IC50 [2, 6]: 362 nM

IC50 [1, 9]: 272 nM
Molecule: NS(=O)(=O)c1cccc(Nc2ncc(F)c(Nc3ccc(OC(F)(F)F)cc3)n2)c1 [VI-33, N2-(3-aminosulfonylphenyl)-5-fluoro-N4-(4-trofluoromethoxyphenyl)-2,4-pyrimidinediamine]
IC50 [2, 10]: 660 nM

IC50 [1, 7]: 211 nM
Molecule: Cc1ccc(Nc2ncc(F)c(Nc3ccc(CCC(N)=O)cc3)n2)cc1S(N)(=O)=O [III-47, N4-[4-(2-Aminocarboxylethylene)phenyl]-5-fluoro-N2-(4-methyl-3-aminosulfonylphenyl)-2,4-pyrimidinediamine]
IC50 [2, 8]: 366 nM

IC50 [1, 7]: 190 nM
Molecule: NS(=O)(=O)c1cccc(Nc2ncc(F)c(Nc3cccc(OCc4cccnc4)c3)n2)c1 [Compound I-182, N2-(3-Aminosulfonylphenyl)-5-fluoro-N4-[3-(3-pyridinyl)methyleneoxyphenyl]-2,4-pyrimidinediamine]
IC50 [2, 8]: 1130 nM

IC50 [1, 5]: 212 nM
Molecule: NS(=O)(=O)c1ccc(Nc2ncc(F)c(Nc3ccc(CCCF)cc3)n2)cc1 [VI-82, N2-(4-Aminosulfonylphenyl)-5-fluoro-N4-[4-(3-fluoropropyl)phenyl]-2,4-pyrimidinediamine]
IC50 [2, 6]: 1630 nM

IC50 [1, 9]: 173 nM
Molecule: CNS(=O)(=O)c1cc(Nc2ncc(F)c(Nc3ccc(Cn4ccnc4C)cc3)n2)ccc1C [III-93, 5-Fluoro-N2-[3-(N-methylaminosulfony)-4-methylphenyl]-N4-[4-(2-methyl-1-imidazolylmethyl)phenyl]-2,4-pyrimidinediamine]
IC50 [2, 10]: 819 nM

IC50 [1, 3]: 4400 nM
Molecule: NC(=O)NCc1ccc(Nc2nc(Nc3ccc(S(N)(=O)=O)cc3)ncc2F)cc1 [III-32, N4-(4-Aminocarbonylaminomethylphenyl)-N2-(4-aminosulfonylphenyl)-5-fluoro-2,4-pyrimidinediamine]
IC50 [2, 4]: 3320 nM

IC50 [1, 7]: 54.6 nM
Molecule: NS(=O)(=O)c1cccc(Nc2ncc(F)c(Nc3ccc(-c4ccccn4)c(OCF)c3)n2)c1 [Compound I-169, N2-(3-Aminosulfonylphenyl)-5-fluoro-N4-[4-(2-pyridinyl)-3-fluoromethyleneoxyphenyl]-2,4-pyrimidinediamine]
IC50 [2, 8]: 137 nM

Reference: patent US11827628B2, “Compositions and methods for inhibition of the JAK pathway” (Rigel Pharmaceuticals, Inc., priority 2005, dated 2023)
